How the values were obtained:
Assay type in all cases: ADME
[1] = The drug is tested on the gut metagenome community of A-07 with ENA study accession number: PRJEB31790 for biotransformation under anaerobic condition. The drug concentrations were measured over 7 timepoints collected between 0 and 12 hours of incubation by liquid-chromatography-coupled mass spectrometry (LC–MS); set-up: dose 5 uM, timepoint 0, 0.75, 1.5, 3, 6, 9, 12 hours; settings: 5 µM
[2] = The drug is tested on Clostridium bolteae strain: DSM15670 for biotransformation under anaerobic condition. The drug concentrations were measured over 6 timepoints collected between 0 and 12 hours of incubation by liquid-chromatography-coupled mass spectrometry (LC–MS); set-up: dose 5 uM, timepoint 0, 1.5, 3, 6, 9, 12 hours; settings: enterocloster bolteae, 5 µM
[3] = The drug is tested on Bifidobacterium longum strain: DSM20088 for biotransformation under anaerobic condition. The drug concentrations were measured over 6 timepoints collected between 0 and 12 hours of incubation by liquid-chromatography-coupled mass spectrometry (LC–MS); set-up: dose 5 uM, timepoint 0, 1.5, 3, 6, 9, 12 hours; settings: 5 µM
[4] = The drug is tested on Bacteroides thetaiotaomicron strain: DSM2079 for biotransformation under anaerobic condition. The drug concentrations were measured over 6 timepoints collected between 0 and 12 hours of incubation by liquid-chromatography-coupled mass spectrometry (LC–MS); set-up: dose 5 uM, timepoint 0, 1.5, 3, 6, 9, 12 hours; settings: 5 µM
[5] = The drug is tested on Streptococcus anginosus strain: DSM20563 for biotransformation under microaerobic condition. The drug concentrations were measured over 6 timepoints collected between 0 and 12 hours of incubation by liquid-chromatography-coupled mass spectrometry (LC–MS); set-up: dose 5 uM, timepoint 0, 1.5, 3, 6, 9, 12 hours; settings: 5 µM
[6] = The drug is tested on the gut metagenome community of A-02 with ENA study accession number: PRJEB31790 for biotransformation under anaerobic condition. The drug concentrations were measured over 7 timepoints collected between 0 and 12 hours of incubation by liquid-chromatography-coupled mass spectrometry (LC–MS); set-up: dose 5 uM, timepoint 0, 0.75, 1.5, 3, 6, 9, 12 hours; settings: 5 µM
[7] = The drug is tested on the gut metagenome community of P-03 with ENA study accession number: PRJEB31790 for biotransformation under microaerobic condition. The drug concentrations were measured over 7 timepoints collected between 0 and 12 hours of incubation by liquid-chromatography-coupled mass spectrometry (LC–MS); set-up: dose 5 uM, timepoint 0, 0.75, 1.5, 3, 6, 9, 12 hours; settings: 5 µM
[8] = The drug is tested on Parabacteroides distasonis strain: DSM20701 for biotransformation under anaerobic condition. The drug concentrations were measured over 6 timepoints collected between 0 and 12 hours of incubation by liquid-chromatography-coupled mass spectrometry (LC–MS); set-up: dose 5 uM, timepoint 0, 1.5, 3, 6, 9, 12 hours; settings: 5 µM
[9] = The drug is tested on the gut metagenome community of T-05 with ENA study accession number: PRJEB31790 for biotransformation under anaerobic condition. The drug concentrations were measured over 7 timepoints collected between 0 and 12 hours of incubation by liquid-chromatography-coupled mass spectrometry (LC–MS); set-up: dose 5 uM, timepoint 0, 0.75, 1.5, 3, 6, 9, 12 hours; settings: 5 µM
[10] = The drug is tested on Bifidobacterium longum strain: DSM20088 for biotransformation under microaerobic condition. The drug concentrations were measured over 6 timepoints collected between 0 and 12 hours of incubation by liquid-chromatography-coupled mass spectrometry (LC–MS); set-up: dose 5 uM, timepoint 0, 1.5, 3, 6, 9, 12 hours; settings: 5 µM
[11] = The drug is tested on Clostridium scindens strain: DSM5676 for biotransformation under anaerobic condition. The drug concentrations were measured over 6 timepoints collected between 0 and 12 hours of incubation by liquid-chromatography-coupled mass spectrometry (LC–MS); set-up: dose 5 uM, timepoint 0, 1.5, 3, 6, 9, 12 hours; settings: 5 µM
[12] = The drug is tested on the gut metagenome community of P-04 with ENA study accession number: PRJEB31790 for biotransformation under microaerobic condition. The drug concentrations were measured over 7 timepoints collected between 0 and 12 hours of incubation by liquid-chromatography-coupled mass spectrometry (LC–MS); set-up: dose 5 uM, timepoint 0, 0.75, 1.5, 3, 6, 9, 12 hours; settings: 5 µM
[13] = The drug is tested on Lactobacillus gasseri strain: DSM20243 for biotransformation under anaerobic condition. The drug concentrations were measured over 6 timepoints collected between 0 and 12 hours of incubation by liquid-chromatography-coupled mass spectrometry (LC–MS); set-up: dose 5 uM, timepoint 0, 1.5, 3, 6, 9, 12 hours; settings: 5 µM
[14] = The drug is tested on Blautia hansenii strain: DSM20583 for biotransformation under anaerobic condition. The drug concentrations were measured over 6 timepoints collected between 0 and 12 hours of incubation by liquid-chromatography-coupled mass spectrometry (LC–MS); set-up: dose 5 uM, timepoint 0, 1.5, 3, 6, 9, 12 hours; settings: 5 µM
[15] = The drug is tested on Actinomyces naeslundi strain: DSM43013 for biotransformation under microaerobic condition. The drug concentrations were measured over 6 timepoints collected between 0 and 12 hours of incubation by liquid-chromatography-coupled mass spectrometry (LC–MS); set-up: dose 5 uM, timepoint 0, 1.5, 3, 6, 9, 12 hours; settings: actinomyces naeslundii, 5 µM
[16] = The drug is tested on Dorea formicigenerans strain: DSM3992 for biotransformation under anaerobic condition. The drug concentrations were measured over 6 timepoints collected between 0 and 12 hours of incubation by liquid-chromatography-coupled mass spectrometry (LC–MS); set-up: dose 5 uM, timepoint 0, 1.5, 3, 6, 9, 12 hours; settings: 5 µM
[17] = The drug is tested on Streptococcus mitis strain: DSM12643 for biotransformation under microaerobic condition. The drug concentrations were measured over 6 timepoints collected between 0 and 12 hours of incubation by liquid-chromatography-coupled mass spectrometry (LC–MS); set-up: dose 5 uM, timepoint 0, 1.5, 3, 6, 9, 12 hours; settings: 5 µM
[18] = The drug is tested on the gut metagenome community of A-05 with ENA study accession number: PRJEB31790 for biotransformation under microaerobic condition. The drug concentrations were measured over 7 timepoints collected between 0 and 12 hours of incubation by liquid-chromatography-coupled mass spectrometry (LC–MS); set-up: dose 5 uM, timepoint 0, 0.75, 1.5, 3, 6, 9, 12 hours; settings: 5 µM
[19] = The drug is tested on Bacteroides stercoris strain: HM 1036 for biotransformation under anaerobic condition. The drug concentrations were measured over 6 timepoints collected between 0 and 12 hours of incubation by liquid-chromatography-coupled mass spectrometry (LC–MS); set-up: dose 5 uM, timepoint 0, 1.5, 3, 6, 9, 12 hours; settings: 5 µM
[20] = The drug is tested on Escherichia coli strain: DSM27469 for biotransformation under anaerobic condition. The drug concentrations were measured over 6 timepoints collected between 0 and 12 hours of incubation by liquid-chromatography-coupled mass spectrometry (LC–MS); set-up: dose 5 uM, timepoint 0, 1.5, 3, 6, 9, 12 hours; settings: 5 µM
[21] = The drug is tested on Bacteroides caccae strain: DSM19024 for biotransformation under anaerobic condition. The drug concentrations were measured over 6 timepoints collected between 0 and 12 hours of incubation by liquid-chromatography-coupled mass spectrometry (LC–MS); set-up: dose 5 uM, timepoint 0, 1.5, 3, 6, 9, 12 hours; settings: 5 µM
[22] = The drug is tested on Lactobacillus paracasei strain: ATCC27092 for biotransformation under microaerobic condition. The drug concentrations were measured over 6 timepoints collected between 0 and 12 hours of incubation by liquid-chromatography-coupled mass spectrometry (LC–MS); set-up: dose 5 uM, timepoint 0, 1.5, 3, 6, 9, 12 hours; settings: lacticaseibacillus paracasei, 5 µM
[23] = The drug is tested on Clostridium ramosum strain: DSM1402 for biotransformation under anaerobic condition. The drug concentrations were measured over 6 timepoints collected between 0 and 12 hours of incubation by liquid-chromatography-coupled mass spectrometry (LC–MS); set-up: dose 5 uM, timepoint 0, 1.5, 3, 6, 9, 12 hours; settings: thomasclavelia ramosa, 5 µM
[24] = The drug is tested on Streptococcus salivarius strain: DSM20560 for biotransformation under anaerobic condition. The drug concentrations were measured over 6 timepoints collected between 0 and 12 hours of incubation by liquid-chromatography-coupled mass spectrometry (LC–MS); set-up: dose 5 uM, timepoint 0, 1.5, 3, 6, 9, 12 hours; settings: 5 µM
[25] = The drug is tested on Gemella haemolysans strain: DSM107751 for biotransformation under anaerobic condition. The drug concentrations were measured over 6 timepoints collected between 0 and 12 hours of incubation by liquid-chromatography-coupled mass spectrometry (LC–MS); set-up: dose 5 uM, timepoint 0, 1.5, 3, 6, 9, 12 hours; settings: 5 µM
[26] = The drug is tested on Gemella morbillorum strain: DSM20572 for biotransformation under microaerobic condition. The drug concentrations were measured over 6 timepoints collected between 0 and 12 hours of incubation by liquid-chromatography-coupled mass spectrometry (LC–MS); set-up: dose 5 uM, timepoint 0, 1.5, 3, 6, 9, 12 hours; settings: 5 µM

| Structure (SMILES) | Bacterial Biotransformation [1] | Bacterial Biotransformation [2] | Bacterial Biotransformation [3] | Bacterial Biotransformation [4] | Bacterial Biotransformation [5] | Bacterial Biotransformation [6] | Bacterial Biotransformation [7] | Bacterial Biotransformation [8] | Bacterial Biotransformation [9] | Bacterial Biotransformation [10] | Bacterial Biotransformation [11] | Bacterial Biotransformation [12] | Bacterial Biotransformation [13] | Bacterial Biotransformation [14] | Bacterial Biotransformation [15] | Bacterial Biotransformation [16] | Bacterial Biotransformation [17] | Bacterial Biotransformation [18] | Bacterial Biotransformation [19] | Bacterial Biotransformation [20] | other results |
| --- | --- | --- | --- | --- | --- | --- | --- | --- | --- | --- | --- | --- | --- | --- | --- | --- | --- | --- | --- | --- | --- |
| C[C@H]1C[C@@H]2[C@H]([C@@H](O)C[C@@]3(C)[C@H]2CC[C@]3(O)C(=O)CO)[C@@]2(C)C=CC(=O)C=C12 [METHYLPREDNISOLONE] | Compound metabolized | Compound NOT metabolized | Compound NOT metabolized | Compound NOT metabolized | Compound NOT metabolized | Compound metabolized | Compound metabolized | Compound NOT metabolized | Compound NOT metabolized | Compound NOT metabolized | Compound metabolized | Compound metabolized | Compound NOT metabolized | Compound NOT metabolized | Compound NOT metabolized | Compound NOT metabolized | Compound NOT metabolized | Compound metabolized | Compound NOT metabolized | Compound NOT metabolized | Bacterial Biotransformation [21]: Compound NOT metabolized; Bacterial Biotransformation [22]: Compound NOT metabolized; Bacterial Biotransformation [23]: Compound NOT metabolized; Bacterial Biotransformation [24]: Compound NOT metabolized; Bacterial Biotransformation [25]: Compound NOT metabolized; Bacterial Biotransformation [26]: Compound NOT metabolized |
| COc1c(C)c2c(c(O)c1C/C=C(\C)CCC(=O)OCCN1CCOCC1)C(=O)OC2 [MYCOPHENOLATE MOFETIL] | Compound metabolized | Compound NOT metabolized | Compound metabolized | Compound NOT metabolized | Compound metabolized | Compound metabolized | Compound metabolized | Compound metabolized | Compound metabolized | Compound NOT metabolized | Compound NOT metabolized | Compound metabolized | Compound metabolized | Compound NOT metabolized | Compound NOT metabolized | Compound NOT metabolized | Compound metabolized | Compound metabolized | Compound metabolized | Compound NOT metabolized | Bacterial Biotransformation [21]: Compound metabolized; Bacterial Biotransformation [22]: Compound NOT metabolized; Bacterial Biotransformation [23]: Compound NOT metabolized; Bacterial Biotransformation [24]: Compound metabolized; Bacterial Biotransformation [25]: Compound metabolized; Bacterial Biotransformation [26]: Compound NOT metabolized |
| COc1c(C)c2c(c(O)c1C/C=C(\C)CCC(=O)O)C(=O)OC2 [MYCOPHENOLIC ACID] | Compound NOT metabolized | Compound NOT metabolized | Compound NOT metabolized | Compound NOT metabolized | Compound NOT metabolized | Compound NOT metabolized | Compound NOT metabolized | Compound NOT metabolized | Compound metabolized | Compound NOT metabolized | Compound NOT metabolized | Compound NOT metabolized | Compound NOT metabolized | Compound NOT metabolized | Compound NOT metabolized | Compound NOT metabolized | Compound NOT metabolized | Compound NOT metabolized | Compound NOT metabolized | Compound NOT metabolized | Bacterial Biotransformation [21]: Compound NOT metabolized; Bacterial Biotransformation [22]: Compound NOT metabolized; Bacterial Biotransformation [23]: Compound NOT metabolized; Bacterial Biotransformation [24]: Compound NOT metabolized; Bacterial Biotransformation [25]: Compound NOT metabolized; Bacterial Biotransformation [26]: Compound NOT metabolized |

Reference: ChEMBL document CHEMBL5724806, “Unraveling interindividual differences and functional consequences of gut microbial metabolism of immunosuppressants” (2024)
